The values below come from patent US7186727B2, “Pyridyl-substituted spiro-hydantoin compounds and use thereof” (Bristol-Myers Squibb Company, priority 2004, dated 2007).

The structures appear in SMILES notation.

This data set is described as follows: Microsomal liver assay (rate of oxidative metabolism). The following applies: human liver microsomes; 3 μM test compound, 1 mg/mL microsomal proteins, 37° C. Format: in vitro ADME. As for the experimental part: Mouse and rat liver microsomes were purchased from XenoTech LLC (Kansas City, Kans.), and human liver microsomes were obtained from BD Gentest (Woburn, Mass.).
The oxidative metabolism in liver microsomes of various species was studied under the following condition: 3 μM test compound (organic solvent content <0.1%), 1 mg/mL microsomal proteins, 1 mM β-nicotinamide adenine dinucleotide phosphase (β-NADPH), 100 mM phosphate buffer (pH 7.4), and 6.7 MM magnesium chloride. The reaction (n=3) was initiated by the addition of NADPH followed by incubation at 37° C. for 20 min. Aliquots of samples (0.1 mL) were taken at 0, 5, and 20 min, and the reaction was quenched by the addition of three volumes of acetonitrile. Samples were stored at −20° C. until analysis.
The rate of oxidation in liver microsomes was determined from the following equation: rate (nmol/min/mg protein)=k*C0/Cprotein, where k (1/min) is the turnover rate constant estimated from non-linear regression of the percent compound remaining (y)-time (t) curve using the equation y=y0*exp(−k*t); C0 is initial drug concentration (μM), and Cprotein is microsomal protein concentration (mg/mL).
Rates of metabolism are “binned” (classified) as follows: […]
(In general: Liver microsomes are a subcellular fraction often used to study metabolism.)

In turn, `CN1C(=O)N(c2cc(Cl)cc(Cl)c2)C(=O)[C@]12CN(c1ccccn1)C[C@H]2c1ccc(C#N)cc1` (relative stereo) [4-[(5S*,9R *)-3-(3,5-dichlorophenyl)-1-methyl-2,4-dioxo-7-pyridin-2-yl-1,3,7-triazaspiro[4.4]non-9-yl]-benzonitrile] had a rate of metabolism of 0.2 nmol/min/mg.
